US20240091366A1, “NOVEL ACID-SENSITIVE APTAMER TRIPTOLIDE CONJUGATE AND APPLICATIONS” (priority 2022, published 2024)
Values joined by “and” are separate entries in the source; they are usually repeats but may differ in a detail not shown here. Equal values may be shown once.

Experiments:
[1] = system: colon cancer cell line HCT116; experiment: MTT assay, cell proliferation inhibition; format: cell-based
Text: (§1) Material: aptamer triptolide conjugate (AS1411-TP). Triptolide (TP) was provided by Shanghai Yaji Biotechnology Co. Ltd; aptamer (AS1411) was obtained from Chengdu Pilot Drug Development Co. Ltd; trypsin, thiazolyl blue (MTT) (Biofroxx, Germany); dimethyl sulfoxide (DMSO) (MP Biomedicals, France); fetal bovine serum (FBS) (Newzerum, New Zealand); DMEM medium, RPMI1640 medium, Petri dishes, 96-well plates (Corning, USA); colon cancer cells HCT116, breast cancer cells MDA-MB-231, non-small-cell lung cancer cells A549, pancreatic cancer cells PANC-1, and hepatocellular carcinoma cells HepG2 were purchased from the Shanghai Cell Bank of the Chinese Academy of Sciences and preserved in the laboratory.
(§2) Take the tumor cells HCT116, MDA-MB-231, A549, PANC-1 and HepG2 cell lines from the liquid nitrogen tank, place them in a 37° C. water bath, wait for the frozen cells to melt into cell suspension, centrifuge the cells at 1000 r/min for 3 min, discard the supernatant, add 1 ml of fresh complete medium containing 10% fetal bovine serum and 1% double antibody to mix the cells, then add 5 ml of medium, gently and repeatedly blowing the cells with a pipette gun to make them mix well. Then add 5 ml of medium, blow the cells gently and repeatedly with a pipette gun to mix them well, and finally transfer the cell suspension to a […] and label the cell name, cell number, date of resuscitation and the operator's name, and place it in a cell culture incubator for cultivation. (HCT116, PANC-1 and HepG2 cell lines were cultured in DMEM medium, while MDA-MB-231 cell line and A549 cell line were cultured in RPMI1640 medium).
(§3) Take HCT116, MDA-MB-231, A549, PANC-1, HepG2 cells with good growth status, remove the medium, add 1 ml of sterile PBS to wash, add 1.5 ml of trypsin to digest the cells, about 2 min later the cells become round and fall off, add 1.5 ml of medium to terminate the digestion, transfer it to centrifugal tube, centrifuge at 1000 r/min for 3 min, discard the supernatant, add 1 ml of fresh medium to resuspend, then add fresh medium for 1:3 distribution to other culture dishes, and label the date of transmission and the number of generations. Place in the cell culture incubator for cultivation.
(§4) Take HCT116, MDA-MB-231, A549, PANC-1, HepG2 cells with good growth status, by the same operation as the cell passaging experiment, after cell resuspension, cell counting with hemocyte counting plate, with 2500 cells/well, plant in 96-well plate, after 24 h of cell culture, remove the original medium, add medium containing different concentrations of drugs and continue to cultivate for 48 hours. After 24 h of cell culture, the original medium was removed and the medium containing different concentrations of drugs was added to continue the culture for 48 hours. […] The above steps were repeated three times.

[2] = system: hepatocellular carcinoma cell line HepG2; experiment: MTT assay, cell proliferation inhibition; format: cell-based
Text: as §1, §2, §3, §4

[3] = system: breast cancer cells MDA-MB-231; experiment: In vivo antitumor activity, breast cancer xenograft in nude mice; set-up: species or system mouse; Tumor weight: unit not given here; settings: MDA-MB-231 model, once every 2 days, 8 doses
Text: The following are the in vivo activity studies conducted in different tumor-bearing mice:
The materials used in the experiments were the same as those tested in 5.1 Colon cancer cell lines, differing only in the tumor strains.
A PBS negative control group was set up.

[4] = Body weight during administration, lung cancer model
Experimental: Experimental protocol: Female nude mice were reared for 6-7 weeks under standard environment, lung cancer cell line A549 were suspended in serum-free medium, and each mouse was inoculated with 6*10^6 tumor cells. When the tumor volume reached 50-100 mm^3, the mice were randomly divided into 4 groups, and were injected with aptamer triptolide conjugate, triptolide, and aptamer by tail vein, respectively, 12 mice in each group. A PBS negative control group was set up. […] The drugs were administered once every 2 days for 8 consecutive doses, and the experiment was ended 24 hours after the last dose. At the end of the experiment, the animals were executed by breaking the cervical vertebrae, and the tumors were stripped and weighed to calculate the tumor growth inhibition rate of the drug. The t-test was used to compare the tumor weight, tumor volume, RTV and other indexes of the animals in each group.

[5] = HCT116, 6.3 nM, 48 h, samples 1-3, 0.0063 µM
[6] = HCT116, 12.5 nM, 48 h, samples 1-3, 0.0125 µM
[7] = HCT116, 25.0 nM, 48 h, samples 1-3, 0.025 µM
[8] = HCT116, 50.0 nM, 48 h, samples 1-3, 0.05 µM
[9] = HCT116, 100.0 nM, 48 h, samples 1-3, 0.1 µM
[10] = HCT116, 200.0 nM, 48 h, samples 1-3, 0.2 µM
[11] = HepG2, 3.1 nM, 48 h, samples 1-3, 0.0031 µM
[12] = HepG2, 12.5 nM, 48 h, samples 1-3, 0.0125 µM
[13] = HepG2, 25.0 nM, 48 h, samples 1-3, 0.025 µM
[14] = HepG2, 50.0 nM, 48 h, samples 1-3, 0.05 µM
[15] = HepG2, 100.0 nM, 48 h, samples 1-3, 0.1 µM
[16] = HepG2, 200.0 nM, 48 h, samples 1-3, 0.2 µM

CC(C)[C@]12O[C@H]1[C@@H]1O[C@]13[C@]1(O[C@H]1C[C@H]1C4=C(CC[C@@]13C)C(=O)OC4)[C@@H]2O [TP, Triptolide]
cell proliferation inhibition rate [1, 5]: 20.0440 and 13.1188 | cell proliferation inhibition rate [1, 6]: 43.4099 and 47.0957 | cell proliferation inhibition rate [1, 7]: 66.2973 and 50.7426 | cell proliferation inhibition rate [1, 8]: 79.2127 and 76.2156 | cell proliferation inhibition rate [1, 9]: 80.3075 and 88.8251 | cell proliferation inhibition rate [1, 10]: 98.8058 and 98.5677 | inhibition at 0.0063 µM ([1]; Homo sapiens, HCT-116, 48 h, HCT116, 6.3 nM, 48 h, samples 1-3, read-out: cell proliferation inhibition rate): 24.7% | inhibition at 0.0125 µM ([1]; Homo sapiens, HCT-116, 48 h, HCT116, 12.5 nM, 48 h, samples 1-3, read-out: cell proliferation inhibition rate): 42.1% | inhibition at 0.025 µM ([1]; Homo sapiens, HCT-116, 48 h, HCT116, 25.0 nM, 48 h, samples 1-3, read-out: cell proliferation inhibition rate): 54.9% | inhibition at 0.05 µM ([1]; Homo sapiens, HCT-116, 48 h, HCT116, 50.0 nM, 48 h, samples 1-3, read-out: cell proliferation inhibition rate): 75.6% | inhibition at 0.1 µM ([1]; Homo sapiens, HCT-116, 48 h, HCT116, 100.0 nM, 48 h, samples 1-3, read-out: cell proliferation inhibition rate): 83% | inhibition at 0.2 µM ([1]; Homo sapiens, HCT-116, 48 h, HCT116, 200.0 nM, 48 h, samples 1-3, read-out: cell proliferation inhibition rate): 97.2% | IC50 ([1]; Homo sapiens, HCT-116, colon cancer cells HCT116, MTT, 48 h): 18.88 ± 0.13 nM | cell proliferation inhibition rate [2, 11]: 28.7555 and 29.2302 | cell proliferation inhibition rate ([2]; HepG2, 6.3 nM, 48 h, samples 1-3, 0.0063 µM): 39.8542 and 49.5151 | cell proliferation inhibition rate [2, 12]: 51.8210 and 55.5307 | cell proliferation inhibition rate [2, 13]: 66.7752 and 69.1489 | cell proliferation inhibition rate [2, 14]: 79.9729 and 77.1075 | cell proliferation inhibition rate [2, 15]: 88.3181 and 85.8901 | cell proliferation inhibition rate [2, 16]: 99.2815 and 99.0448 | inhibition at 0.0031 µM ([2]; Homo sapiens, HepG2, 48 h, HepG2, 3.1 nM, 48 h, samples 1-3, read-out: cell proliferation inhibition rate): 29% | inhibition at 0.0063 µM ([2]; Homo sapiens, HepG2, 48 h, HepG2, 6.3 nM, 48 h, samples 1-3, read-out: cell proliferation inhibition rate): 39.7% | inhibition at 0.0125 µM ([2]; Homo sapiens, HepG2, 48 h, HepG2, 12.5 nM, 48 h, samples 1-3, read-out: cell proliferation inhibition rate): 48.7% | inhibition at 0.025 µM ([2]; Homo sapiens, HepG2, 48 h, HepG2, 25.0 nM, 48 h, samples 1-3, read-out: cell proliferation inhibition rate): 68% | inhibition at 0.05 µM ([2]; Homo sapiens, HepG2, 48 h, HepG2, 50.0 nM, 48 h, samples 1-3, read-out: cell proliferation inhibition rate): 78.5% | inhibition at 0.1 µM ([2]; Homo sapiens, HepG2, 48 h, HepG2, 100.0 nM, 48 h, samples 1-3, read-out: cell proliferation inhibition rate): 88.2% | inhibition at 0.2 µM ([2]; Homo sapiens, HepG2, 48 h, HepG2, 200.0 nM, 48 h, samples 1-3, read-out: cell proliferation inhibition rate): 95.2% | IC50 ([2]; Homo sapiens, hepatocellular carcinoma cells HepG2, MTT, 48 h): 10.5 ± 0.33 nM | RTV ([3]; 10 μM tail vein): 27.18 ± 47 | T/C (%) ([3]; 10 μM tail vein): 65.57% | Tumor inhibition rate (%) ([3]; 10 μM tail vein): 31.78% | Tumor weight ([3]; 10 μM tail vein): 2.34 ± 0.39 | RTV ([3]; 30 μM tail vein): 16.44 ± 31 | T/C (%) ([3]; 30 μM tail vein): 39.66% | Tumor inhibition rate (%) ([3]; 30 μM tail vein): 48.40% | Tumor weight ([3]; 30 μM tail vein): 1.77 ± 0.51 | RTV ([3]; 50 μM tail vein): 12.89 ± 55 | T/C (%) ([3]; 50 μM tail vein): 31.10% | Tumor inhibition rate (%) ([3]; 50 μM tail vein): 74.05% | Tumor weight ([3]; 50 μM tail vein): 0.89 ± 0.08 | body weights of mice ([4]; mouse, in vivo): basically maintained in the tolerable range of animal toxicity and side-effects

AS1411: nucleolin aptamer, single-stranded oligonucleotide, SEQ ID NO: 1 GGTGGTGGTGGTTGTGGTGGTGGTGG
cell proliferation inhibition rate [1, 5]: 2.9669 and 1.6683 and 3.1584 | cell proliferation inhibition rate [1, 6]: 4.1987 and 3.0229 and 2.5102 | cell proliferation inhibition rate [1, 7]: 5.4987 and 6.2971 and 5.6986 | cell proliferation inhibition rate [1, 8]: 6.5424 and 6.5952 and 5.0330 | cell proliferation inhibition rate [1, 9]: 10.6504 and 12.1637 and 10.9076 | cell proliferation inhibition rate [1, 10]: 16.9608 and 13.5881 and 14.2937 | inhibitory effect on tumor cell ([1]; HCT116, at the experimental concentration): did not have any significant inhibitory effect | cell proliferation inhibition rate [2, 11]: 2.0417 and 2.2455 and 2.1946 | cell proliferation inhibition rate [2, 12]: 3.5280 and 2.4483 and 3.6148 | cell proliferation inhibition rate [2, 13]: 4.1258 and 3.9268 and 4.1946 | cell proliferation inhibition rate [2, 14]: 8.4300 and 6.9712 and 9.6253 | cell proliferation inhibition rate [2, 15]: 7.2906 and 11.7328 and 8.7216 | cell proliferation inhibition rate [2, 16]: 10.3764 and 15.8325 and 9.9457 | inhibitory effect on tumor cell ([2]; HepG2, at the experimental concentration): did not have any significant inhibitory effect | RTV ([3]; 10 μM tail vein): 39.29 ± 16 | T/C (%) ([3]; 10 μM tail vein): 94.79% | Tumor inhibition rate (%) ([3]; 10 μM tail vein): 7.00% | Tumor weight ([3]; 10 μM tail vein): 3.19 ± 0.27 | RTV ([3]; 30 μM tail vein): 37.55 ± 34 | T/C (%) ([3]; 30 μM tail vein): 90.59% | Tumor inhibition rate (%) ([3]; 30 μM tail vein): 14.87% | Tumor weight ([3]; 30 μM tail vein): 2.92 ± 0.39 | RTV ([3]; 50 μM tail vein): 35.19 ± 38 | T/C (%) ([3]; 50 μM tail vein): 84.90% | Tumor inhibition rate (%) ([3]; 50 μM tail vein): 18.95% | Tumor weight ([3]; 50 μM tail vein): 2.78 ± 0.41 | body weights of mice ([4]; A549 model, during 8 times of administration): basically maintained in the tolerable range of animal toxicity and side-effects
